Laboratory results taken from patent US20050288503A1, “Novel compounds” (priority 2002, published 2005).

Each compound was assayed against CSBP/p38 (Homo sapiens, UniProt Q16539) (assay: CSBP/p38 Kinase Assay (32P transfer from ATP to EGFR-derived T669 peptide)). Conditions: retested at 67 uM.
Assay type: biochemical

CSBP/p38, sequence (Q16539 whole entry): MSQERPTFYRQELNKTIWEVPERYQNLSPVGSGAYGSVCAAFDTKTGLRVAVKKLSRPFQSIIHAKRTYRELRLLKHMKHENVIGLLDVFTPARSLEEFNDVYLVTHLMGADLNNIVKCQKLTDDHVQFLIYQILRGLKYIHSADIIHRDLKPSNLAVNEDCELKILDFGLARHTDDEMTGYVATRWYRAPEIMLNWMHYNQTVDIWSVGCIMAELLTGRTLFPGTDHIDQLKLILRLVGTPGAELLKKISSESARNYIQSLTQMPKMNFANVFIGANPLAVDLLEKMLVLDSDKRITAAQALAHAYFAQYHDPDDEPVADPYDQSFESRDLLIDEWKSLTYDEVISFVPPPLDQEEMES

activity on retesting at a higher concentration	Compound
active	Cn1cnc2c(N(C(N)=O)c3c(F)cccc3F)nc(-c3ccc(Cl)cc3)nc21 [Example 35, 1-[2-(4-chloro-phenyl)-9-methyl-9H-purin-6-yl]-1-(2,6-difluoro-phenyl)-urea]
active	Cn1cnc2c(N(C(N)=O)c3c(F)cccc3F)nc(-c3cc(F)cc(F)c3)nc21 [Example 46, 1-(2,6-difluoro-phenyl)-1-[2-(3,5-difluoro-phenyl)-9-methyl-9H-purin-6-yl]-urea]

Same assay, conditions: yeast-expressed, activated and purified p38; 0.17 mM ATP; T669 peptide; read-out: positive inhibitory activity in the CSBP/p38 kinase assay at

IC50 [µM]	Compound
< 50	Cn1cnc2c(Nc3c(F)cccc3F)nc(-c3ccccc3Cl)nc21 [Example 11, [2-(2-chloro-phenyl)-9-methyl-9H-purin-6-yl]-(2,6-difluoro-phenyl)-amine]
< 50	Cc1ccc(-c2nc(Nc3c(F)cccc3F)c3ncn(C)c3n2)cc1 [Example 14, (2,6-difluoro-phenyl)-(9-methyl-2-p-tolyl-9H-purin-6-yl)-amine]
< 50	Cn1cnc2c(Nc3c(F)cccc3F)nc(-c3ccccc3F)nc21 [Example 17, (2,6-difluoro-phenyl)-[2-(2-fluoro-phenyl)-9-methyl-9H-purin-6-yl]-amine]
< 50	Cn1cnc2c(Nc3c(F)cccc3F)nc(-c3ccc(F)cc3F)nc21 [Example 19, (2,6-difluoro-phenyl)-[2-(2,4-difluoro-phenyl)-9-methyl-9H-purin-6 yl]-amine]
< 50	CN(C)CCn1cnc2c(Nc3c(F)cccc3F)nc(-c3ccccc3F)nc21 [Example 22, (2,6-difluoro-phenyl)-[9-(2-dimethylamino-ethyl)-2-(2-fluoro-phenyl)-9H-purin-6-yl]-amine]
< 50	Fc1ccccc1-c1nc(Nc2c(F)cccc2F)c2ncn(Cc3ccccc3)c2n1 [Example 23]
